In ChEMBL document CHEMBL4219227, “Polyprenylated polycyclic acylphloroglucinol: Angiogenesis inhibitor from Garcinia multiflora” (Bioorg Med Chem Lett, 2018):
Activity calls are given as the source filed them. No cut-off for these calls is given here.

Columns and labels:
Format in all cases: functional
Homo sapiens [1] = organism: Homo sapiens; test: Growth inhibition of human CD34-positive EPC at 10 uM after 48 hrs by SRB assay
Homo sapiens [2] = organism: Homo sapiens; test: Antiangiogenic activity in human CD34-positive EPC assessed as suppression of cell reorganization at 20 uM after 24 hrs by phase contrast microscopic method
Homo sapiens [3] = organism: Homo sapiens; test: Antiangiogenic activity in human CD34-positive EPC assessed as suppression of capillary-like structure formation at 20 uM after 24 hrs by phase contrast microscopic method
[4] = Antiangiogenic activity in human CD34-positive EPC assessed as suppression of capillary-like structure formation after 24 hrs by phase contrast microscopic method
SK-HEP1 = test: Growth inhibition of human SKHEP1 cells after 48 hrs by SRB assay; conditions: SK-HEP1, 48 h
PC-3 = test: Growth inhibition of human PC3 cells after 48 hrs by SRB assay; conditions: PC-3, 48 h

SMILES | growth inhibition (GI) (Homo sapiens [1]) | Activity (Homo sapiens [2]) | Activity (Homo sapiens [3]) | IC50 [4] | GI50 (SK-HEP1) | GI50 (PC-3)
C=C(C)[C@@H](CC=C(C)C)C[C@]12C[C@@H](CC=C(C)C)C(C)(C)[C@](CC=C(C)C)(C1=O)C(O)=C(C(=O)c1ccccc1)C2=O | Active | Active | Active | 14.3 µM | 4.3 µM | 6.6 µM
CC(C)=CCC1=C2OC(C)(C)[C@@H](CC=C(C)C)C[C@@]23C[C@@H](CC=C(C)C)C(C)(C)[C@@](C(=O)c2ccccc2)(C1=O)C3=O [GARCIMULTIFLORONE A] | Active | Active | Active | 16.5 µM | > 30 µM | 24.8 µM
C=C(C)[C@@H](CC=C(C)C)C[C@@]12C[C@@H](CC=C(C)C)C(C)(C)[C@]3(C=CC(C)(C)OC3=C(C(=O)c3ccccc3)C1=O)C2=O [GARCIMULTIFLORONE B] | Active | Active | Active | 15.7 µM | > 30 µM | 18.2 µM
CC(=O)O[C@H]1C(=O)[C@@]2(C)[C@H]([C@H](OC(=O)c3ccccc3)[C@]3(O)C[C@H](OC(=O)[C@H](O)[C@@H](NC(=O)c4ccccc4)c4ccccc4)C(C)=C1C3(C)C)[C@]1(OC(C)=O)CO[C@@H]1C[C@@H]2O [PACLITAXEL] |  |  |  |  | 0.011 µM | 0.013 µM
